Test system: LXRα and/or LXRβ
Test: Co-transfection assay (LXRE luciferase reporter, CV-1 cells)
Assay type: cell-based, human
Details: tested as described in Example 33; IC50 or EC50 for LXRα and/or LXRβ, isoform not specified; read-out: activity (IC50 or EC50 for LXR)
Summary of the method: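 CV-1 cells transiently co-transfected with full-length human LXRα or LXRβ plus RXRα, an LXRE×1-Tk-luciferase reporter and a β-galactosidase control. Compounds incubated 20 h at 37 °C (≤1% DMSO; screen at 10 μM final); luciferase read after lysis. EC50/IC50 from 8-point half-log curves (4 wells per point, ≥3 experiments); efficacy relative to a reference agonist high control and DMSO.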

`CC(C)(C)c1ccc(-c2ccc(-n3cc(C(C)(C)O)nc3-c3ccccc3Cl)cc2)cc1` [Example 389, 2-{2-(2-chlorophenyl)-1-[4′-(1,1-dimethylethyl)biphenyl-4-yl]-1H-imidazol-4-yl}propan-2-ol] and `CC(C)(O)c1cccc(-c2ccc(-n3cc(C(C)(C)O)nc3-c3ccccc3Cl)cc2)c1` [Example 409, 2-{2-(2-chlorophenyl)-1-[3′-(1-hydroxy-1-methylethyl)biphenyl-4-yl]-1H-imidazol-4-yl}propan-2-ol] fall in the same range of IC50 or EC50 (potency, activation or inhibition): 1 to 10 µM for the first, 1 to 10 µM for the second.

`COC(=O)c1cccc(-c2ccc(-n3cc(C(C)(C)O)nc3-c3ccccc3Cl)cc2)c1` [Example 390, methyl 4′-[2-(2-chlorophenyl)-4-(1-hydroxy-1-methylethyl)-1H-imidazol-1-yl]biphenyl-3-carboxylate] and `CC(C)(O)c1cn(-c2ccc(-c3cccc(C(=O)O)c3)cc2)c(-c2ccccc2Cl)n1` [Example 395, 4′-[2-(2-chlorophenyl)-4-(1-hydroxy-1-methylethyl)-1H-imidazol-1-yl]biphenyl-3-carboxylic acid] fall in the same range of IC50 or EC50 (potency, activation or inhibition): 1 to 10 µM for the first, 1 to 10 µM for the second.

`CC(C)(O)c1cn(-c2ccc(-c3cccc(NC(=O)c4ccc5c(c4)OCO5)c3)cc2)c(-c2ccccc2Cl)n1` [Example 391, N-{4′-[2-(2-chlorophenyl)-4-(1-hydroxy-1-methylethyl)-1H-imidazol-1-yl]biphenyl-3-yl}-1,3-benzodioxole-5-carboxamide] and `CC(C)(O)c1cn(-c2ccc(-c3cccc(N)c3)cc2)c(-c2ccccc2Cl)n1` [Example 405, 2-[1-(3′-aminobiphenyl-4-yl)-2-(2-chlorophenyl)-1H-imidazol-4-yl]propan-2-ol] fall in the same range of IC50 or EC50 (potency, activation or inhibition): 1 to 10 µM for the first, 1 to 10 µM for the second.

`CC(C)(O)c1cn(-c2ccc(-c3cccc(S(C)(=O)=O)c3)cc2)c(-c2cccc(C(F)(F)F)c2)n1` [Example 392, 2-{1-[3′-(methylsulfonyl)biphenyl-4-yl]-2-[3-(trifluoromethyl)phenyl]-1H-imidazol-4-yl}propan-2-ol] and `CC(C)(O)c1cn(-c2ccc(-c3cccc(S(C)(=O)=O)c3)cc2)c(-c2cccc(Cl)c2)n1` [Example 393, 2-{2-(3-chlorophenyl)-1-[3′-(methyl-sulfonyl)biphenyl-4-yl]-1H-imidazol-4-yl}propan-2-ol] cannot be ordered by IC50 or EC50 (potency, activation or inhibition): less than 1 µM for the first, less than 1 µM for the second.

First: Cc1cccc(Cl)c1-c1nc(C(C)(C)O)cn1-c1ccc(-c2cccc(S(C)(=O)=O)c2)cc1 [Example 394, 2-{2-(2-chloro-6-methylphenyl)-1-[3′-(methylsulfonyl)biphenyl-4-yl]-1H-imidazol-4-yl}propan-2-ol]
Second: CC(C)(O)c1cn(-c2ccc(-c3cccc(S(C)(=O)=O)c3)cc2)c(-c2c(F)cccc2Cl)n1 [Example 416, 2-{2-(2-chloro-6-fluorophenyl)-1-[3′-(methylsulfonyl)biphenyl-4-yl]-1H-imidazol-4-yl}propan-2-ol]
The IC50 or EC50 (potency, activation or inhibition) of the first is lower: less than 1 µM for the first, 1 to 10 µM for the second.

First: FC(F)(F)CNC(=S)c1cn(-c2ccc(Br)cc2)c(-c2ccccc2Cl)n1 [Example 396, 1-(4-bromophenyl)-2-(2-chlorophenyl)-N-(2,2,2-trifluoroethyl)-1H-imidazole-4-carbothioamide]
Second: CS(=O)(=O)c1cccc(-c2ccc(-n3cc(C(=S)NCC(F)(F)F)nc3-c3ccccc3Cl)cc2)c1 [Example 398, 2-(2-chlorophenyl)-1-[3′-(methyl-sulfonyl)biphenyl-4-yl]-N-(2,2,2-trifluoroethyl)-1H-imidazole-4-carbothioamide]
The IC50 or EC50 (potency, activation or inhibition) of the first is higher: 1 to 10 µM for the first, less than 1 µM for the second.

`CS(=O)(=O)c1cccc(-c2ccc(-n3cc(C(=O)NCC(F)(F)F)nc3-c3ccccc3Cl)cc2)c1` [Example 397, 2-(2-chlorophenyl)-1-[3′-(methyl-sulfonyl)biphenyl-4-yl]-N-(2,2,2-trifluoroethyl)-1H-imidazole-4-carboxamide] and `CC(=O)c1cn(-c2ccc(-c3cccc(S(C)(=O)=O)c3)cc2)c(-c2ccccc2C(F)(F)F)n1` [Example 411, 1-{1-[3′-(methylsulfonyl)biphenyl-4-yl]-2-[2-(trifluoromethyl)phenyl]-1H-imidazol-4-yl}ethanone] cannot be ordered by IC50 or EC50 (potency, activation or inhibition): less than 1 µM for the first, less than 1 µM for the second.

Compared with `COc1ccc(-c2ccc(-n3cc(C(C)(C)O)nc3-c3ccccc3C(F)(F)F)cc2)cc1S(C)(=O)=O` [Example 399, 2-{1-[4′-(methyloxy)-3′-(methyl-sulfonyl)biphenyl-4-yl]-2-[2-(trifluoromethyl)phenyl]-1H-imidazol-4-yl}propan-2-ol], `CC(C)(O)c1cn(-c2ccc(-c3ccc(CO)c(S(C)(=O)=O)c3)cc2)c(-c2ccccc2C(F)(F)F)n1` [Example 400, 2-{1-[4′-(hydroxymethyl)-3′-(methylsulfonyl)biphenyl-4-yl]-2-[2-(trifluoromethyl)phenyl]-1H-imidazol-4-yl}propan-2-ol] is lower in IC50 or EC50 (potency, activation or inhibition): 1 to 10 µM for the first, less than 1 µM for the second.

First: CCOC(=O)c1cc(-c2ccc(-n3cc(C(C)(C)O)nc3-c3ccccc3C(F)(F)F)cc2)cc(S(C)(=O)=O)c1 [Example 401, ethyl 4′-{4-(1-hydroxy-1-methylethyl)-2-[2-(trifluoro-methyl)phenyl]-1H-imidazol-1-yl}-5-(methylsulfonyl)biphenyl-3-carboxylate]
Second: CC(C)(O)c1cn(-c2cccc(-c3ccc(S(C)(=O)=O)cc3)c2)c(-c2ccccc2C(F)(F)F)n1 [Example 407, 2-{1-[4′-(methylsulfonyl)biphenyl-3-yl]-2-[2-(trifluoromethyl)phenyl]-1H-imidazol-4-yl}propan-2-ol]
The IC50 or EC50 (potency, activation or inhibition) of the first is higher: 1 to 10 µM for the first, less than 1 µM for the second.

`CC(C)(O)c1nc(-c2ccccc2C(F)(F)F)n(-c2ccc(-c3cccc(S(C)(=O)=O)c3)cc2)c1Br` [Example 402, 2-{5-bromo-1-[3′-(methyl-sulfonyl)biphenyl-4-yl]-2-[2-(trifluoro-methyl)phenyl]-1H-imidazol-4-yl}propan-2-ol] and `CC(C)(O)c1nc(-c2ccccc2C(F)(F)F)n(-c2ccc(-c3cccc(S(C)(=O)=O)c3)cc2)c1Cl` [Example 403, 2-{5-chloro-1-[3′-(methyl-sulfonyl)biphenyl-4-yl]-2-[2-(trifluoro-methyl)phenyl]-1H-imidazol-4-yl}propan-2-ol] cannot be ordered by IC50 or EC50 (potency, activation or inhibition): less than 1 µM for the first, less than 1 µM for the second.

`CC(C)(O)c1nc(-c2ccccc2C(F)(F)F)n(-c2ccc(-c3cccc(S(C)(=O)=O)c3)cc2)c1F` [Example 406, 2-{5-fluoro-1-[3′-(methyl-sulfonyl)biphenyl-4-yl]-2-[2-(trifluoro-methyl)phenyl]-1H-imidazol-4-yl}propan-2-ol] and `CC(C)S(=O)(=O)c1cccc(-c2ccc(-n3cc(C(C)(C)O)nc3-c3ccccc3C(F)(F)F)cc2)c1` [Example 413] cannot be ordered by IC50 or EC50 (potency, activation or inhibition): less than 1 µM for the first, less than 1 µM for the second.

`C/C(=N\O)c1cn(-c2ccc(-c3cccc(S(C)(=O)=O)c3)cc2)c(-c2ccccc2Cl)n1` [Example 408, 1-{2-(2-chlorophenyl)-1-[3′-(methylsulfonyl)biphenyl-4-yl]-1H-imidazol-4-yl}ethanone oxime] and `C/C(=N\O)c1cn(-c2ccc(-c3cccc(S(C)(=O)=O)c3)cc2)c(-c2ccccc2C(F)(F)F)n1` [Example 412, 1-{1-[3′-(methylsulfonyl)biphenyl-4-yl]-2-[2-(trifluoromethyl)phenyl]-1H-imidazol-4-yl}ethanone oxime] cannot be ordered by IC50 or EC50 (potency, activation or inhibition): less than 1 µM for the first, less than 1 µM for the second.

`CC(C)(O)c1cn(-c2ccc(-c3cccc(S(C)(=O)=O)c3)cc2)c(-c2c(F)cccc2F)n1` [Example 410, 2-{2-(2,6-difluorophenyl)-1-[3′-(methylsulfonyl)biphenyl-4-yl]-1H-imidazol-4-yl}propan-2-ol] and `CCS(=O)(=O)c1cccc(-c2ccc(-n3cc(C(C)(C)O)nc3-c3c(F)cccc3F)cc2)c1` [Example 419, 2-{2-(2,6-difluorophenyl)-1-[3′-(ethylsulfonyl)biphenyl-4-yl]-1H-imidazol-4-yl}propan-2-ol] fall in the same range of IC50 or EC50 (potency, activation or inhibition): 1 to 10 µM for the first, 1 to 10 µM for the second.

Compared with `CCS(=O)(=O)c1cccc(-c2ccc(-n3cc(C(C)(C)O)nc3-c3ccccc3Cl)cc2)c1` [Example 415, 2-{2-(2-chlorophenyl)-1-[3′-(ethylsulfonyl)biphenyl-4-yl]-1H-imidazol-4-yl}propan-2-ol], `CC(C)(O)c1cn(-c2ccc(-c3cccc(S(C)(=O)=O)c3)cc2Cl)c(-c2ccccc2Cl)n1` [Example 417, 2-{1-[3-chloro-3′-(methyl-sulfonyl)biphenyl-4-yl]-2-(2-chlorophenyl)-1H-imidazol-4-yl}propan-2-ol] is lower in IC50 or EC50 (potency, activation or inhibition): 1 to 10 µM for the first, less than 1 µM for the second.

First: Cc1cc(-c2cccc(S(C)(=O)=O)c2)ccc1-n1cc(C(C)(C)O)nc1-c1ccccc1Cl [Example 418, 2-{2-(2-chlorophenyl)-1-[3-methyl-3′-(methylsulfonyl)biphenyl-4-yl]-1H-imidazol-4-yl}propan-2-ol]
Second: CC(C)(O)c1cn(-c2ccc(-c3cccc(S(C)(=O)=O)c3)cn2)c(-c2ccccc2C(F)(F)F)n1 [Example 420, 2-(1-{5-[3-(methyl-sulfonyl)phenyl]pyridin-2-yl}-2-[2-(trifluoromethyl)phenyl]-1H-imidazol-4-yl)propan-2-ol]
The IC50 or EC50 (potency, activation or inhibition) of the first is lower: less than 1 µM for the first, 1 to 10 µM for the second.

First: CC(C)(O)c1cn(-c2ccc(-c3cccc(S(C)(=O)=O)c3)nc2)c(-c2ccccc2C(F)(F)F)n1 [Example 421, 2-(1-{6-[3-(methyl-sulfonyl)phenyl]pyridin-3-yl}-2-[2-(trifluoromethyl)phenyl]-1H-imidazol-4-yl)propan-2-ol]
Second: CC(C)(O)c1cn(Cc2ccccc2Cl)c(-c2ccc(-c3cccc(S(C)(=O)=O)c3)cc2)n1 [Example 443, 2-(1-(2-chlorobenzyl)-2-(3′-(methylsulfonyl)biphenyl-4-yl)-1H-imidazol-4-yl)propan-2-ol]
The IC50 or EC50 (potency, activation or inhibition) of the first is higher: 1 to 10 µM for the first, less than 1 µM for the second.

From patent US9000022B2 (Exelixis Patent Company LLC, priority 2005, dated 2015)
